Data from patent US7297344B1, “Preparations for the promotion of wound healing in the upper respiratory tract and/or ear” (priority 1999, dated 2007).

Tested on: Human ciliated epithelium cells
Assay: in-vitro ciliary vibration (ciliary activity) test
Assay type: cell-based
Method: The corresponding cells were exposed and incubated with 100 μl test substance at a temperature of 37° C.

## N=C(NCCCCCCNC(=N)NC(=N)Nc1ccc(Cl)cc1)NC(=N)Nc1ccc(Cl)cc1 [chlorohexidine]
  ciliary activity / ciliary vibration: decrease of the measured ciliary vibration
